Data from patent US4757082A, “Method of inhibiting aromatase” (Eli Lilly and Company, priority 1984, dated 1988).

Biological target: T1, aromatase (Rattus norvegicus, UniProt P22443)
T1 construct: ovarian microsomes are obtained from rats treated with pregnant mares serum gonadotropin; from tissue; host or cells: ovarian microsomes from rats treated with pregnant mares serum gonadotropin
T1 sequence (P22443 1-508): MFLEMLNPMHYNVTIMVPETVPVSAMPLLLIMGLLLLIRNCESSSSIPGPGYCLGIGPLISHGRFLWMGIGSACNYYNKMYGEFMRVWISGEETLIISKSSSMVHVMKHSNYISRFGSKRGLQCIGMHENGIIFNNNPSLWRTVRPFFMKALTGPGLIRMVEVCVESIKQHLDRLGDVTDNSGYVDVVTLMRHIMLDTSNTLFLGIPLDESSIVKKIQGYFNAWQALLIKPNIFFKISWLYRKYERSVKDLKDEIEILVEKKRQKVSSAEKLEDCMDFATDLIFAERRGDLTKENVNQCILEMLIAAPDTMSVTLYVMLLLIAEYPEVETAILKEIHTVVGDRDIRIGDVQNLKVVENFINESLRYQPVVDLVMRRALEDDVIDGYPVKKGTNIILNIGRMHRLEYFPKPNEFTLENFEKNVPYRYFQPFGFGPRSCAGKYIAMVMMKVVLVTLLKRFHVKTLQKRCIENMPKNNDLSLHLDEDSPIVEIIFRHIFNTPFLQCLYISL
Assay: Aromatase inhibition in the rat ovarian microsome assay
Format: biochemical
Conditions: rat ovarian microsomes; substrate (androstenedione) concentration 0.1 μM
Protocol: In this test system, ovarian microsomes are obtained from rats treated with pregnant mares serum gonadotropin. Test compounds are added to reaction vials containing 0.1 μM 4-androstene-3,17-dione, 100,000 dpm 1,2[^3 H]-androstenedione, the microsomes and a NADPH generating system. The concentrations of the inhibitors tested ranged between 0.005 and 10 μM.

Q: Which EC50 does the source give for `c1ccc2c(c1)CCc1ccccc1C2n1ccnc1` [1-(10,11-dihydro-5H--dibenzo-[a,d]cyclohepten-5-yl)-1H--imidazole nitrate] here?
A: 2000 nM
